Structures are written as SMILES.

For orientation: IC50 means the midpoint of a concentration-inhibition curve. A low value points to inhibition by little substance.

Cannabinoid receptor 1, sequence (P20272 whole entry): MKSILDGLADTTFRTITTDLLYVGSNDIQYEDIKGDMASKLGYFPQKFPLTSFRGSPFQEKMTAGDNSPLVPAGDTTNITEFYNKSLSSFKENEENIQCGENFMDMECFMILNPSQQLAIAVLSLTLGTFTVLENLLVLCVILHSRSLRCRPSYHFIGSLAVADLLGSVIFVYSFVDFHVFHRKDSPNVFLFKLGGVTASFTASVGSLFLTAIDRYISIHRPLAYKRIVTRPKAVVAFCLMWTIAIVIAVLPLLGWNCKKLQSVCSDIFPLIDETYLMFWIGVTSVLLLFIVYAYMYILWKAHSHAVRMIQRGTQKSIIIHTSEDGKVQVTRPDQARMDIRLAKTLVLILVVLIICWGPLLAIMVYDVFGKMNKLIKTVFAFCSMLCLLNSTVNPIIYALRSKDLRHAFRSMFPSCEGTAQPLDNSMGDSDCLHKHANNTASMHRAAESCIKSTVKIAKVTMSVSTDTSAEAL

The first experiment addresses Cannabinoid receptor 1 (Rattus norvegicus, UniProt P20272). Briefly: Displacement of [3H]CP-55940 from CB1 receptor in Sprague-Dawley rat cerebellar membrane. On the set-up: species or system Cerebellum. Background: Displacement assays read how much labelled ligand stays bound in the presence of the test substance.
On to `Cc1c(-c2nnc(C3(C(F)(F)F)CCC3)o2)nc(-c2ccc(Cl)cc2Cl)n1-c1ccc(Cl)cc1`, for which the half-inhibitory concentration (IC50) turned out to be 16.7 nM.
`Cc1c(-c2nnc(C3(c4ccc(Cl)cc4)CC3)o2)nc(-c2ccc(Cl)cc2Cl)n1-c1ccc(Cl)cc1` gave a half-maximal inhibitory concentration (IC50) of 15.2 nM.
`Cc1c(-c2nnc(C(C)(C)C)s2)nc(-c2ccccc2Cl)n1-c1ccc(Cl)cc1`: the IC50 was determined as 12.7 nM.
On to `Cc1c(-c2nnc(C3(C(F)(F)F)CC3)s2)nc(-c2ccc(Cl)cc2Cl)n1-c1ccc(Cl)cc1`, for which the IC50 is 33.5 nM.
In turn, `Cc1c(-c2nnc(C3(C(F)(F)F)CCC3)s2)nc(-c2ccc(Cl)cc2Cl)n1-c1ccc(Cl)cc1` came in with an IC50 of 9.66 nM.
Same read-out and setting: the result for `Cc1c(-c2nnc(C3(C(F)(F)F)CC3)o2)nc(-c2ccc(Cl)cc2Cl)n1-c1ccc(Cl)cc1` reads 55.1 nM.
Turning to `CCc1c(-c2nnc(C(C)(C)C)o2)nc(-c2ccccc2Cl)n1-c1ccc(Cl)cc1`, the half-maximal inhibitory concentration (IC50) was 21.3 nM.
As for `Cc1c(-c2nnc(C(C)(C)C)o2)nc(-c2ccccc2Cl)n1-c1ccc(Cl)cc1`, the 50% inhibitory concentration (IC50) is 5.29 nM.
`Cc1c(-c2nnc(C3(c4ccc(Cl)cc4)CC3)s2)nc(-c2ccc(Cl)cc2Cl)n1-c1ccc(Cl)cc1` came in with a half-inhibitory concentration (IC50) of 9.41 nM.
As to `Cc1c(-c2nnc(CC(C)C)o2)nc(-c2ccc(Cl)cc2Cl)n1-c1ccc(Cl)cc1`, the IC50 came to 39.4 nM.
Compound `Cc1c(-c2nnc(CC(C)C)s2)nc(-c2ccc(Cl)cc2Cl)n1-c1ccc(Cl)cc1` yielded an IC50 of 28.1 nM.

The target of a further experiment is Cannabinoid receptor 2 (Homo sapiens, UniProt P34972). Description: Displacement of [3H]WIN-55212-2 from human CB2 receptor expressed in CHO cells. The class given is cell-based.
Cannabinoid receptor 2, sequence (P34972 whole entry): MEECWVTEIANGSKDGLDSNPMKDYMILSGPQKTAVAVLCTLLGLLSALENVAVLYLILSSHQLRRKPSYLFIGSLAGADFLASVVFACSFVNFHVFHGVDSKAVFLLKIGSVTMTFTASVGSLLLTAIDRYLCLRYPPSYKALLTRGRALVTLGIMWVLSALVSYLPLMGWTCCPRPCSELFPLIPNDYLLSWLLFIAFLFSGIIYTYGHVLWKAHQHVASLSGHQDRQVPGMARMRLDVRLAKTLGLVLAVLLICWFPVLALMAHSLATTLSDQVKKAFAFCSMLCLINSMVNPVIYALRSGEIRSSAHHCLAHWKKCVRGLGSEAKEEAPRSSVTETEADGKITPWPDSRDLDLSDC
For the compound `CCc1c(-c2nnc(C3(c4ccc(C)cc4)CC3)o2)nc(-c2ccc(Cl)cc2Cl)n1-c1ccc(Br)cc1`, the IC50 was over 10000 nM.
In turn, `CCc1c(-c2nnc(C3(c4ccc(OC)cc4)CC3)s2)nc(-c2ccc(Cl)cc2Cl)n1-c1ccc(Br)cc1` had an IC50 of over 10000 nM.
Turning to `CCc1c(-c2nnc(C3(c4ccc(Cl)cc4)CCC3)o2)nc(-c2ccc(Cl)cc2Cl)n1-c1ccc(Br)cc1`, the 50% inhibitory concentration (IC50) was over 10000 nM.
In turn, `CCc1c(-c2nnc(C3(c4ccc(Cl)cc4Cl)CC3)s2)nc(-c2ccc(Cl)cc2Cl)n1-c1ccc(Br)cc1` registered an IC50 of over 10000 nM.
Still for that read-out and setting: to `CCc1c(-c2nnc(C3(c4ccccc4)CC3)s2)nc(-c2ccc(Cl)cc2Cl)n1-c1ccc(Br)cc1` belongs over 10000 nM.
Still for that read-out and setting: the result for `CCc1c(-c2nnc(C3(c4ccc(Cl)cc4)CC3)s2)nc(-c2ccc(Cl)cc2Cl)n1-c1ccc(Br)cc1` reads over 10000 nM.
`CCc1c(-c2nnc(C3(c4ccc(Cl)cc4Cl)CC3)o2)nc(-c2ccc(Cl)cc2Cl)n1-c1ccc(Br)cc1` registered an IC50 of over 10000 nM.
`CCc1c(-c2nnc(C3(c4ccc(C)cc4)CC3)s2)nc(-c2ccc(Cl)cc2Cl)n1-c1ccc(Br)cc1` gave a 50% inhibitory concentration (IC50) of over 10000 nM.
`CCc1c(-c2nnc(C3(c4ccc(Cl)cc4)CCC3)s2)nc(-c2ccc(Cl)cc2Cl)n1-c1ccc(Br)cc1` displayed a concentration for half-maximal inhibition (IC50) of over 10000 nM.
